Patent US20010049393A1, “Methods for defining MYC target genes and uses thereof” (Whitehead Institute for Biomedical Research, priority 1999, published 2001)

Key:
[1] = system: MYC-ER; test: Cell cycle (S phase) entry after OHT treatment of MYC-ER transduced human fibroblasts; type: cell-based
Protocol: (§1) Amphotropic viral stocks were generated by co-transfection of pBabe-puro plasmid containing MYC-ER™ or Δ-MYC-ER™ (Littlewood, T. et al., 1995. Nucl. Acids Res. 23:1686-1690) together with Psi^−helper construct (Muller, A. et al., 1991. Mol. Cell. Biol. 11:1785-1792) in 293T cells. Subconfluent WI38 cells (ATCC cat #CCL75) grown in DMEM with 10% FCS were infected with 5 mL of viral supernatant on two consecutive days. The next day, cells were plated at ˜10^4cells/cm^2 in phenol-red free DME medium with 10% FCS, and selected in the presence of puromycin for pBABE vectors. Cells were grown to confluence, for seven to eight days, without media changes. Density arrested cells were induced with 200 nM OHT (4-hydroxy-tamoxifen) or serum starved (0.1% FCS) for 48 hours and then induced. Where specified, cells were exposed to cycloheximide (10 micrograms/mL) for 30 minutes prior to addition of OHT.
Treatment of the transduced cells with OHT, caused 20% of the cells to enter the cell cycle by 17 hours. In contrast, only 1-6% of, OHT-treated, non-MYC-ER expressing controls ever enter S phase. […]

[2] = system: MYC-ER; test: Northern blot of p21 transcript after OHT stimulation of MYC-ER; type: cell-based, human; details: within two hours after OHT stimulation, MYC-ER fibroblasts
Protocol: as §1
Northern blots were performed according to standard procedures (Ausubel, F. et al., 1990. Current Protocols in Molecular Biology. Wiley Interscience, New York). For cyclin D2 and p21, complete cDNA was used as probes. For FKBP52, a PCR amplicon of bps 1215-1767 (accession number M88279) was used; for FABP5 (PA-FA-BP), bps 60-481 (M94856); for ODC1, bps 1198-1984 (X55362); for PPIF (hCyP3), bps 404-803 (M80254); and for EIF5A, bps 46-512 (U17969). […]

4-hydroxytamoxifen [OHT]
cells entering the cell cycle ([1]; MYC-ER transduced fibroblasts, by 17 hours after OHT): 20% | cells entering S phase ([1]; OHT-treated, non-MYC-ER expressing controls): 1-6% | levels of p21 [2]: decreased
